Among the data in patent US9233961B2, “Compounds and compositions for the treatment of parasitic diseases” (Novartis AG, priority 2013, dated 2016) are EC50 values, retold here.

The structures appear in SMILES notation. Read-outs that look alike come from different tables or passages of the source.

The term EC50 denotes the concentration needed to bring the measured effect to its halfway point.

For assay [1], the system named is L. donovani HU3 strain in mouse peritoneal macrophages. The assay is described as follows: Assay for proliferation of Leishmania parasites in mouse peritoneal macrophages. It counts as cell-based, Leishmania donovani. The note with it: Leishmania donovani, Peritoneal macrophage, read-out: L. donavani Macrophage EC50. In a few lines:
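EC50 derives from counting SYBR Green-stained parasite nuclei by high-content imaging after 5 days' compound exposure. Host cells were uninfected BALB/c peritoneal macrophages, infected for 24 h before dosing with spleen-derived L. donovani HU3 parasites from mice infected 9–11 weeks.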

Assay [2] concerns Leishmania donovani axenic amastigote parasites. Briefly: Leishmania donovani axenic amastigote proliferation assay. The format is cell-based. The note with it: read-out: L. donovani amastigotes EC50. In a few lines: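 EC50 values come from CellTiter-Glo luminescence after 2-day compound exposure of axenic amastigotes (9600 per well) at 37 °C, 5% CO2. Medium: RPMI 1640, 20% heat-inactivated FBS, folic acid, adenosine, D-glucose, 25 mM MES, adjusted to pH 5.5.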

In assay [3] the test system is Trypanosoma brucei Lister 427 strain bloodstream form. Briefly: Assay for proliferation of kinetoplastid parasite Trypanosoma brucei. The format is cell-based. The note with it: read-out: T. brucei EC50. In a few lines:
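Bloodstream-form T. brucei Lister 427 in HMI-9 medium was exposed to compound (DMSO vehicle) for 48 hours at 37° C, 5% CO2. Parasite growth was read as ATP by CellTiter-Glo luminescence, with EC50 calculated from percent inhibition.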

Where [4] appears, read: Lister 427 bloodstream form, 48 hours.

For `Cc1cnc2nc(-c3cc(NS(=O)(=O)c4c(C)noc4C)ccc3Cl)[nH]c2c1` [Compound 253], the EC50 is above 28.4 µM in assay [1], above 24.9 µM in assay [2] (axenic amastigotes in vitro) and above 25 µM in assay [3] (setting [4]).

As for `Cc1cnc2nc(-c3cc(NC(=O)Cc4ccc(N(C)C)cc4)ccc3Cl)[nH]c2c1` [Compound 82], the EC50 in assay [1] is above 38.5 µM; in assay [2] (axenic amastigotes in vitro), above 25 µM; in assay [3] (setting [4]), above 14.1 µM.

Regarding `CNc1ccc(-c2cnc3nc(-c4cc(NC(=O)c5cc(C)cs5)ccc4Cl)[nH]c3c2)cc1` [Example 345, N-(4-chloro-3-{6-[4-(methylamino)phenyl]-1H-imidazo[4,5-b]pyridin-2-yl}phenyl)-4-methylthiophene-2-carboxamide], the EC50 was determined as 1.35 µM in assay [1], 1.97 µM in assay [2] (axenic amastigotes in vitro) and 0.277 µM in assay [3] (setting [4]).

Turning to `Cc1cnc2nc(-c3cc(NC(=O)C(c4ccc(Cl)cc4)C(C)C)ccc3Cl)[nH]c2c1` (stereo not drawn) [Compound 141], the values for the EC50 in assay [1], in assay [2] (axenic amastigotes in vitro) and in assay [3] (setting [4]) were 9.7 µM, 13.9 µM and 6.2 µM, respectively.

In the case of `O=C(Nc1ccc(Cl)c(-c2nc3ncc(-c4ccc(OCCN5CCOCC5)nc4)cc3[nH]2)c1)c1ccco1` [Compound 11], the results for the EC50 in assay [1], in assay [2] (axenic amastigotes in vitro) and in assay [3] (setting [4]) were 0.46 µM, 0.55 µM and 0.0064 µM, respectively.

In the case of `Cc1cnc2nc(-c3cc(Nc4nccc5c4CCN(Cc4ccccc4)C5)ccc3Cl)[nH]c2c1` [Compound 265], the EC50 in assay [1] is 15.6 µM; in assay [2] (axenic amastigotes in vitro), above 25 µM; in assay [3] (setting [4]), 8.2 µM.

Turning to `Cc1cnc2nc(-c3cc(NC(=O)Cc4ccc(Cl)cc4)ccc3Cl)[nH]c2c1` [Compound 144], the EC50 was 26 µM in assay [1], above 25 µM in assay [2] (axenic amastigotes in vitro) and above 11.3 µM in assay [3] (setting [4]).

With `Cc1cnc2nc(-c3cc(Nc4ccc(N(C)C)cn4)ccc3Cl)[nH]c2c1` [Compound 259], the EC50 was above 50 µM in assay [1], above 25 µM in assay [2] (axenic amastigotes in vitro) and above 25 µM in assay [3] (setting [4]).

As for `Cc1cnc2nc(-c3cc(NC(=O)N4CCNC4=O)ccc3Cl)[nH]c2c1` [Compound 246], the EC50 in assay [1] was above 50 µM; in assay [2] (axenic amastigotes in vitro), above 25 µM; in assay [3] (setting [4]) it was above 25 µM.

For `Cc1cnc2nc(-c3cc(NC(=O)Cc4cccc(F)c4F)ccc3Cl)[nH]c2c1` [Example 78, N-(4-chloro-3-{6-methyl-1H-imidazo[4,5-b]pyridin-2-yl}phenyl)-2-(2,3-difluorophenyl)acetamide], the results for the EC50 in assay [1], in assay [2] (axenic amastigotes in vitro) and in assay [3] (setting [4]) were above 50 µM, above 25 µM and above 6.6 µM, respectively.

For the compound `NCc1cnc2nc(-c3cc(NC(=O)c4ccco4)ccc3Cl)[nH]c2c1` [Example 352, N-{3-[6-(aminomethyl)-1H-imidazo[4,5-b]pyridin-2-yl]-4-chlorophenyl}furan-2-carboxamide], the half-maximal effective concentration (EC50) in assay [1] amounted to 49.5 µM; in assay [2] (axenic amastigotes in vitro), 0.253 µM; in assay [3] (setting [4]), 0.45 µM.

On to `O=C1Cc2cc(-c3cnc4nc(-c5cc(NC(=O)c6ccco6)ccc5Cl)[nH]c4c3)ccc2N1` [Compound 43], for which the EC50 in assay [1] amounted to 6.9 µM; in assay [2] (axenic amastigotes in vitro), 0.73 µM; in assay [3] (setting [4]), 0.0216 µM.

Turning to `CCOC(=O)Nc1ccc(Cl)c(-c2nc3ncc(C)cc3[nH]2)c1` [Compound 217], the EC50 in assay [1] worked out at 10.4 µM; in assay [2] (axenic amastigotes in vitro), 5.9 µM; in assay [3] (setting [4]) it was 0.8 µM.

For the compound `CNc1ccc(-c2cnc3nc(-c4cc(NC(=O)c5cscn5)ccc4Cl)[nH]c3c2)cc1` [Compound 349], the EC50 in assay [1] came to 2.69 µM; in assay [2] (axenic amastigotes in vitro), 1.35 µM; in assay [3] (setting [4]) it was 0.171 µM.

For the compound `Cc1cnc2nc(-c3cc(NC(=O)c4cc[nH]n4)ccc3Cl)[nH]c2c1` [Compound 157], the EC50 in assay [1] was above 34.6 µM; in assay [2] (axenic amastigotes in vitro), above 25 µM; in assay [3] (setting [4]), 12.8 µM.

Regarding `Cc1cnc2nc(-c3cc(NC(=O)c4cc(Cl)cc(Cl)c4)ccc3Cl)[nH]c2c1` [Compound 196], the EC50 in assay [1] was 11 µM; in assay [2] (axenic amastigotes in vitro) it was above 25 µM; in assay [3] (setting [4]), 11.2 µM.

For `Cc1cnc2nc(-c3cc(NC(=O)Cc4c(F)cccc4F)ccc3Cl)[nH]c2c1` [Compound 87], the EC50 was 24.4 µM in assay [1], above 25 µM in assay [2] (axenic amastigotes in vitro) and above 6.9 µM in assay [3] (setting [4]).

Turning to `Cc1cnc2nc(-c3cc(NC(=O)Cc4ccccc4)ccc3Cl)[nH]c2c1` [Compound 202], the EC50 in assay [1] was above 50 µM; in assay [2] (axenic amastigotes in vitro) it was above 25 µM; in assay [3] (setting [4]), 1.87 µM.

Turning to `CNc1ccc(-c2cnc3nc(-c4cc(NC(=O)C5CCCC5)ccc4Cl)[nH]c3c2)cc1` [Compound 346], the EC50 in assay [1] amounted to 0.47 µM; in assay [2] (axenic amastigotes in vitro), 2.53 µM; in assay [3] (setting [4]), 0.56 µM.

For `Cc1cnc2nc(-c3cc(NC(=O)c4ccc(C(F)(F)F)nc4C)ccc3Cl)[nH]c2c1` [Compound 162], the EC50 in assay [1] was above 50 µM; in assay [2] (axenic amastigotes in vitro), above 25 µM; in assay [3] (setting [4]), 1.23 µM.

For `Cc1cnc2nc(-c3cc(NC(=O)Cc4ccc(F)cc4F)ccc3Cl)[nH]c2c1` [Compound 114], the EC50 is above 41.5 µM in assay [1], above 25 µM in assay [2] (axenic amastigotes in vitro) and above 11.9 µM in assay [3] (setting [4]).

In the case of `Cc1cnc2nc(-c3cc(NCc4ccco4)ccc3Cl)[nH]c2c1` [Example 266, 4-chloro-N-(furan-2-ylmethyl)-3-{6-methyl-1H-imidazo[4,5-b]pyridin-2-yl}aniline], the EC50 in assay [1] is above 40.5 µM; in assay [2], above 25 µM; in assay [3] (48 h), above 25 µM.

As for `Cc1cnc2nc(-c3cc(NC(=O)c4cccc5c4OCC5)ccc3Cl)[nH]c2c1` [Compound 180], the EC50 in assay [1] was 13.2 µM; in assay [2] (axenic amastigotes in vitro) it was above 25 µM; in assay [3] (setting [4]) it was 8.3 µM.

In the case of `Cc1cnc2nc(-c3cc(NC(=O)C4(C)COC4)ccc3Cl)[nH]c2c1` [Compound 163], the EC50 was above 50 µM in assay [1], above 25 µM in assay [2] (axenic amastigotes in vitro) and above 25 µM in assay [3] (setting [4]).

Take `COc1ccc(CC(=O)Nc2ccc(Cl)c(-c3nc4ncc(C)cc4[nH]3)c2)cc1` [Compound 156]: the EC50 was 27.2 µM in assay [1], above 25 µM in assay [2] (axenic amastigotes in vitro) and above 14.2 µM in assay [3] (setting [4]).

Consider `Cc1cnc2nc(-c3cc(NC(=O)OCc4ccccc4)ccc3Cl)[nH]c2c1` [Compound 223], for which the EC50 was 21.4 µM in assay [1], above 25 µM in assay [2] (axenic amastigotes in vitro) and 14.1 µM in assay [3] (setting [4]).

Regarding `Cc1cnc2nc(-c3cc(NC(=O)C4CCC4)ccc3Cl)[nH]c2c1` [Compound 118], the EC50 was 21.8 µM in assay [1], 11.1 µM in assay [2] (axenic amastigotes in vitro) and 3.2 µM in assay [3] (setting [4]).

On to `CN(C)CCOc1ccc(-c2cnc3nc(-c4cc(NC(=O)c5ccco5)ccc4Cl)[nH]c3c2)cc1` [Compound 69], for which the figures for the EC50 in assay [1], in assay [2] (axenic amastigotes in vitro) and in assay [3] (setting [4]) were 2.74 µM, 18.1 µM and 0.1 µM, respectively.

On to `Cc1cnc2nc(-c3cc(NC(=O)OCC(C)C)ccc3Cl)[nH]c2c1` [Compound 220], for which the EC50 in assay [1] is 17.3 µM; in assay [2] (axenic amastigotes in vitro) it was 7.4 µM; in assay [3] (setting [4]) it was 1.66 µM.

Turning to `Cc1cnc2nc(-c3cc(NC(=O)C4Cc5ccccc5O4)ccc3Cl)[nH]c2c1` (stereo not drawn) [Compound 123], the results for the EC50 in assay [1], in assay [2] (axenic amastigotes in vitro) and in assay [3] (setting [4]) were above 50 µM, 20.3 µM and 4.1 µM, respectively.

Consider `Cc1cnc2nc(-c3cc(Nc4ccc(N5CCOCC5)cn4)ccc3Cl)[nH]c2c1` [Compound 260], for which the EC50 is 29.3 µM in assay [1], above 25 µM in assay [2] (axenic amastigotes in vitro) and 17.7 µM in assay [3] (setting [4]).

For the compound `Cc1cnc2nc(-c3cc(NC(=O)Cn4ccnc4)ccc3Cl)[nH]c2c1` [Compound 197], the 50% effective concentration (EC50) in assay [1] is above 50 µM; in assay [2] (axenic amastigotes in vitro), above 25 µM; in assay [3] (setting [4]), above 22.3 µM.

As for `Cc1cnc2nc(-c3cc(NC(=O)C4(C)CNC4)ccc3Cl)[nH]c2c1` [Compound 200], the EC50 was above 50 µM in assay [1], above 25 µM in assay [2] (axenic amastigotes in vitro) and above 9.6 µM in assay [3] (setting [4]).

For the compound `O=C(Nc1ccc(Cl)c(-c2nc3ncc(-c4ccc(OCCN5CCCCC5)cc4)cc3[nH]2)c1)c1ccco1` [Compound 21], the EC50 in assay [1] was found to be 2.8 µM; in assay [2] (axenic amastigotes in vitro) it was 16 µM; in assay [3] (setting [4]), 0.063 µM.

`Cc1cnc2nc(-c3cc(NC(=O)Cn4cccnc4=O)ccc3Cl)[nH]c2c1` [Compound 168]: the results for the EC50 in assay [1], in assay [2] (axenic amastigotes in vitro) and in assay [3] (setting [4]) were above 50 µM, above 25 µM and above 16.7 µM, respectively.

For the compound `Cc1cnc2nc(-c3cc(NC(=O)N4CCOCC4)ccc3Cl)[nH]c2c1` [Example 237, N-(4-chloro-3-{6-methyl-1H-imidazo[4,5-b]pyridin-2-yl}phenyl)morpholine-4-carboxamide], the EC50 in assay [1] was above 50 µM; in assay [2] (axenic amastigotes in vitro), above 25 µM; in assay [3] (setting [4]), 8.7 µM.

For the compound `Cc1cnc2nc(-c3cc(NC(=O)c4cnco4)ccc3Cl)[nH]c2c1` [Compound 177], the EC50 in assay [1] was above 50 µM; in assay [2] (axenic amastigotes in vitro), 2.28 µM; in assay [3] (setting [4]), 1.66 µM.

Consider `Cc1cnc2nc(-c3cc(NC(=O)NC4CCC4)ccc3Cl)[nH]c2c1` [Example 247, 1-(4-Chloro-3-{6-methyl-1H-imidazo[4,5-b]pyridin-2-yl}phenyl)-3-cyclobutylurea], for which the EC50 in assay [1] was 26.9 µM; in assay [2] (axenic amastigotes in vitro), above 25 µM; in assay [3] (setting [4]) it was 6.4 µM.

Take `Cc1cnc2nc(-c3cc(NC(=O)Cc4nnn[nH]4)ccc3Cl)[nH]c2c1` [Compound 169]: the EC50 in assay [1] was above 50 µM; in assay [2] (axenic amastigotes in vitro), above 25 µM; in assay [3] (setting [4]), above 25 µM.
